Reference: US12162959B2, “Cyclic peptide for treating cancer” (Saint Leo University, priority 2018, dated 2024)
Where a SMILES comes first, the peptide text is derived from it.

Experiments:
[1] = test system: Human recombinant CMG helicase; test: In vitro CMG helicase activity assay with Y-shaped oligonucleotide substrate; format: biochemical; conditions: about 5 nM CMG helicase, 1.0, 2.0 or 5.0 nM peptide, 0.5 mM ATP, 37° C. 45 minutes; FIG. 1A/1B
Description: Human recombinant CMG helicase was co-incubated with Peptide 7N (amide cyclic of SEQ ID NO: 1) peptide in the 1-5 nM range and subjected to an in vitro activity assay with Y-shaped oligonucleotides as a substrate.
About 5 nM of CMG helicase was pre-incubated with 1.0, 2.0, or 5.0 nM of Peptide 7N peptide for 20 minutes on ice. In vitro helicase reactions containing partially annealed Y-shaped oligonucleotides as substrate were fired by the addition of 0.5 mM ATP as described previously (Kang Y H et al. PNAS, 2012, 109(16), p. 6042-6047). Reactions were incubated at 37° C. for 45 minutes, stopped with 4 μL of 6× stop solution, and separated by 10% PAGE. To visualize DNA bands, the gel was stained using SYBR Gold nucleic acid stain. Densities of single-stranded DNA bands were quantified by using Image Lab software, and normalized against control.

[2] = test system: MRC-9 normal embryonic lung fibroblasts
Description: (§1) Cells were incubated post-transfection for a duration of two doubling periods and assessed for viability by using a cell proliferetion CCK-8 assay.
(§2) IC50 values were calculated form obtained equations that describe cell viability as a function of peptide concentration.

[3] = test system: THLE-3 immortalized normal liver cells
Description: (§3) Hepatocellular carcinoma (Hep3B and Hep-G2) and immortalized normal liver (THLE-3) cells were transfected with 1.25 μM, 2.5 μM, 5.0 μM, or 20.0 μM of peptide 7N by using Pierce Protein Transfection reagent. Cells were incubated post-transfection for a duration of two doubling periods and assessed for viability by using a cell proliferetion CCK-8 assay.
as §2

[4] = test system: hTERT-HPNE immortalized normal pancreatic cells
Description: as §1, §2

[5] = test system: SVG p12 immortalized normal astroglia cells
Description: as §1, §2

[6] = test system: HMEC primary mammary epithelial cells
Description: (§4) Breast adenocarcinoma (MDA-MB468), ductal carcinoma (BT-549), and primary mammary epithelial (HMEC) cells were transfected with 1.25 μM, 2.5 μM, 5.0 μM, or 20.0 μM of peptide 7N by using Pierce Protein Transfection reagent. Cells were incubated post-transfection for a duration of two doubling periods and assessed for viability by using a cell proliferetion CCK-8 assay.
as §2

Description for BT-549 cells: as §4, §2
Description for H596 cells: as §1, §2
Description for HLF-a cells: as §1, §2
Description for Hep-G2 cells: as §3, §2
Description for Hep3B cells: as §3, §2
Description for Hs 766T cells: as §1, §2
Description for M059J cells: as §1, §2
Description for M059K cells: as §1, §2
Description for MDA-MB468 cells: as §4, §2
Description for NTERA-2 cells: Pierce Protein Transfection reagent (Thermo Scientific, 89850) was used to deliver peptide to the cultured cells. Transfected cells were allowed to go through two division cycles (48 hours) port-transfection, after which amounts of alive cells were determined by using a colorimetric CCK-8 assay (Dojindo Molecular Technologies, Inc.).
Human embryonal testicular carcinoma cells (NTERA-2 from ATCC #CRL-1973) were transfected with 1-10 μM Peptide 7N for 4.0 hours, incubated in a complete media for 48 hours, and assessed for viability by using a CCK-8 colorimetric assay.
as §2
Description for PANC-1 cells: as §1, §2
Description for SW480 cells: (§5) Colorectal adenocarcinoma cells (SW480 and SW620) were transfected with 1.25 μM, 2.5 μM, 5.0 μM, or 20.0 μM of peptide 7N by using Pierce Protein Transfection reagent. Cells were incubated post-transfection for a duration of two doubling periods and assessed for viability by using a cell proliferetion CCK-8 assay.
as §2
Description for SW620 cells: as §5, §2

CSCC[C@@H]1NC(=O)[C@H](CCC(N)=O)NC(=O)[C@H](CC(C)C)NC(=O)[C@H](C(C)C)NC(=O)[C@H](CCC(=O)O)NC(=O)CNC(=O)[C@H](CCCCN)NC(=O)[C@H](C(C)C)NC(=O)[C@H](CC(C)C)NC(=O)[C@H](CC(=O)O)NC(=O)[C@H](CC(=O)O)NC(=O)[C@H](CCC(=O)O)NC1=O [Peptide 7N, Lys-Gly-Glu-Val-Leu-Gln-Met-Glu-Asp-Asp-Leu-Val] (cyclo(KGEVLQMEDDLV))
Inhibition of CMG helicase (density of single-stranded DNA bands normalized against control) [1]: inhibited CMG helicase in a robust dose-dependent manner
IC50 (NTERA-2 cells; 48 h): 7 µM
Proliferation/viability of NTERA-2 cells (NTERA-2 cells; transfected with 1-10 μM peptide for 4.0 hours, 48 hours in complete media, CCK-8, FIG. 2): effectively inhibited proliferation
IC50 (H596 cells): 12.2 µM
Proliferation of lung carcinoma cells (result in words) (H596 cells; H596, 1.25-20.0 μM peptide, CCK-8, FIG. 3): decreased proliferation
IC50 (HLF-a cells): 14.4 µM
Proliferation of lung carcinoma cells (result in words) (HLF-a cells; HLF-a, 1.25-20.0 μM peptide, CCK-8, FIG. 3): decreased proliferation
IC50 [2]: 162 µM
Effect on normal lung fibroblasts (result in words) ([2]; MRC-9, 1.25-20.0 μM peptide, CCK-8, FIG. 3): sparing
IC50 (Hep3B cells): 14.1 µM
Proliferation of liver carcinoma cells (result in words) (Hep3B cells; Hep3B, 1.25-20.0 μM peptide, CCK-8, FIG. 4): decreased proliferation
IC50 (Hep-G2 cells): 16.7 µM
Proliferation of liver carcinoma cells (result in words) (Hep-G2 cells; Hep-G2, 1.25-20.0 μM peptide, CCK-8, FIG. 4): decreased proliferation
IC50 [3]: 722 µM
Effect on immortalized normal liver cells (result in words) ([3]; THLE-3, 1.25-20.0 μM peptide, CCK-8, FIG. 4): sparing
IC50 (Hs 766T cells): 18.1 µM
Proliferation of pancreatic carcinoma cells (result in words) (Hs 766T cells; Hs 766T, 1.25-20.0 μM peptide, CCK-8, FIG. 5): decreased proliferation
IC50 (PANC-1 cells): 24.6 µM
Proliferation of pancreatic carcinoma cells (result in words) (PANC-1 cells; PANC-1, 1.25-20.0 μM peptide, CCK-8, FIG. 5): decreased proliferation
IC50 [4]: 1050 µM
Effect on immortalized normal pancreatic cells (result in words) ([4]; hTERT-HPNE, 1.25-20.0 μM peptide, CCK-8, FIG. 5): sparing
IC50 (M059J cells): 15.4 µM
Proliferation of brain glioma cells (result in words) (M059J cells; M059J, 1.25-20.0 μM peptide, CCK-8, FIG. 6): decreased proliferation
IC50 (M059K cells): 16.1 µM
Proliferation of brain glioma cells (result in words) (M059K cells; M059K, 1.25-20.0 μM peptide, CCK-8, FIG. 6): decreased proliferation
IC50 [5]: 271 µM
Effect on immortalized normal astroglia cells (result in words) ([5]; SVG p12, 1.25-20.0 μM peptide, CCK-8, FIG. 6): sparing
IC50 (MDA-MB468 cells): 17.1 µM
Proliferation of breast cancer cells (result in words) (MDA-MB468 cells; MDA-MB468, 1.25-20.0 μM peptide, CCK-8, FIG. 7): decreases proliferation
IC50 (BT-549 cells): 18.3 µM
Proliferation of breast cancer cells (result in words) (BT-549 cells; BT-549, 1.25-20.0 μM peptide, CCK-8, FIG. 7): decreases proliferation
IC50 [6]: 134 µM
Effect on normal mammary epithelial cells (result in words) ([6]; HMEC, 1.25-20.0 μM peptide, CCK-8, FIG. 7): sparing
IC50 (SW480 cells): 21.8 µM
Proliferation of colorectal cancer cells (result in words) (SW480 cells; SW480, 1.25-20.0 μM peptide, CCK-8, FIG. 8): decreased proliferation
IC50 (SW620 cells): 22 µM
Proliferation of colorectal cancer cells (result in words) (SW620 cells; SW620, 1.25-20.0 μM peptide, CCK-8, FIG. 8): decreased proliferation
